The test system of data set [1] is Mycobacterium tuberculosis. The data set can be described thus: Antitubercular activity against Mycobacterium tuberculosis H37Rv ATCC 27294 using GAST/Fe medium after 1 week in presence of guanine by broth microdilution method. It is filed as functional. The conditions noted are these: H37Rv ATCC 27294, 168 h. For orientation: In broth dilution the organism is exposed to a series of concentrations in liquid medium.

The target in the next data set is T1, GMP reductase 2 (Homo sapiens, UniProt Q9P2T1).
T1 sequence (Q9P2T1 whole entry): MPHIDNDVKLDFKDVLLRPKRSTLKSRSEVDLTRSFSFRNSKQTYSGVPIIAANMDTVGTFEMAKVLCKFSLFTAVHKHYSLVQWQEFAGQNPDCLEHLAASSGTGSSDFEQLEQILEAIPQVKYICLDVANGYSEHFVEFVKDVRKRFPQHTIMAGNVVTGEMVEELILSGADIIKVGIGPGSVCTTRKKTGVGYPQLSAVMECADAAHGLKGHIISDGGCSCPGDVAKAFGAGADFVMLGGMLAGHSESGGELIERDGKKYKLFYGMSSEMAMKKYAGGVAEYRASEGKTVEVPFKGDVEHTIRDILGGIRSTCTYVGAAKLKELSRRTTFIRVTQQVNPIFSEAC
Nature of the data set: Inhibition of human GMPR2 using GMP as substrate by spectrophotometric method. The conditions noted are these: read-out: Ki(app).

For data set [2], the system named is Mycobacterium tuberculosis. The data set can be described thus: Antitubercular activity against Mycobacterium tuberculosis H37Rv ATCC 27294 using 7H9/ADC/Tween medium after 1 week in presence of guanine by broth microdilution method. The conditions noted are these: H37Rv ATCC 27294, 168 h. It is filed as functional.
Data set [3] deals with Mycobacterium tuberculosis. Nature of the data set: Antitubercular activity against Mycobacterium tuberculosis H37Rv ATCC 27294 using 7H9/ADC/Tween medium after 1 week in absence of guanine by broth microdilution method. It is filed as functional. The conditions noted are these: H37Rv ATCC 27294, 168 h.
In data set [4] the test system is Mycobacterium tuberculosis. Nature of the data set: Antitubercular activity against Mycobacterium tuberculosis H37Rv ATCC 27294 using 7H9/ADC/Tween medium after 2 weeks in absence of guanine by broth microdilution method. It is filed as functional, organism-based.
Data set [5] deals with Mycobacterium tuberculosis. Nature of the data set: Antitubercular activity against Mycobacterium tuberculosis H37Rv ATCC 27294 using GAST/Fe medium after 1 week in absence of guanine by broth microdilution method. The class given is functional. The conditions noted are these: H37Rv ATCC 27294, 168 h.
Data set [6] addresses Inosine-5'-monophosphate dehydrogenase 2 (Homo sapiens, UniProt P12268). The data set can be described thus: Inhibition of human IMPDH2 using IMP as substrate by spectrophotometric method. The conditions noted are these: read-out: Ki(app).
Data set [7] concerns Mycobacterium tuberculosis. Nature of the data set: Antitubercular activity against Mycobacterium tuberculosis H37Rv ATCC 27294 using GAST/Fe medium after 2 weeks in absence of guanine by broth microdilution method. The class given is functional, organism-based.
The nature of data set [8]: (§1) Cytotoxicity against human HepG2 cells after 24 hrs by LDH release assay. The class given is cell-based. The conditions noted are these: HepG2 cells, read-out: LD50. A general note: LDH in the medium is a marker of cell lysis.
Data set [9] concerns HepG2. Nature of the data set: Cytotoxicity against human HepG2 cells assessed as LDH release at 25 uM after 24 hrs relative to control. The class given is cell-based. The conditions noted are these: hepg2, 24 h.
Data set [10] can be described thus: Half life in mouse liver microsomes in absence of NADPH. It is filed as ADME, microsome.
The test system of data set [11] is HepG2. The description is as §1. It is filed as cell-based. The conditions noted are these: hepg2, 24 h.
Data set [12] deals with Mycobacterium tuberculosis. The data set can be described thus: Antitubercular activity against Mycobacterium tuberculosis H37Rv ATCC 27294 using 7H9/ADC/Tween medium after 1 week in absence of guanine and presence of anhydrotetracycline by Alamar blue assay. It is filed as functional. The conditions noted are these: H37Rv ATCC 27294, 168 h.

This note sets out measurements from ChEMBL document CHEMBL4184333, “Expanding Benzoxazole-Based Inosine 5'-Monophosphate Dehydrogenase (IMPDH) Inhibitor Structure-Activity As Potential Antituberculosis Agents” (J Med Chem, 2018).

pKi: −log10 of the molar value. Converted amounts (≈) assume the structure as drawn. The source made the active and inactive calls. The calls are words filed in the database; no cut-off is given here.

As a reminder, the MIC is the lowest concentration that inhibits growth of the organism. By pKi is commonly meant the negative decadic logarithm of the Ki, by convention in mol/L. Consider `C[C@H](Oc1cccc(F)c1F)C(=O)Nc1ccc2oc(-c3ccncc3)nc2c1`, for which the MIC in [1] amounted to 6.3 µM; in [2] it was 4 µM; in data set [3], 1.9 µM (≈ 0.751 µg/mL); in data set [5], 4 µM (≈ 1.58 µg/mL). Besides, the pKi (on GMP reductase 2; in [6]) was less than 5.30 throughout. In addition, the outcome in [4] and in [7] was Active.
For `C[C@H](Oc1cccc(F)c1F)C(=O)Nc1ccc2oc(-c3ccc(C#N)cc3)nc2c1`, the MIC in data set [1] came out at 6.3 µM; in data set [2], 4 µM; in [3], 1.5 µM (≈ 0.629 µg/mL); in data set [5], 3 µM (≈ 1.26 µg/mL). In addition, the negative-log Ki (pKi) was less than 5.30 on GMP reductase 2 and 5.70 in data set [6]. In addition, the CC50 at 24 h in data set [8] was greater than 25 µM. Moreover, in the data set on HepG2 [9], the Activity was 9 to 13%.
For the compound `C[C@H](Nc1cccc(Cl)c1Cl)C(=O)Nc1ccc2oc(-c3ccc(C#N)cc3)nc2c1`, the MIC in data set [1] turned out to be 13 µM; in data set [2] it was 6 µM; in data set [3] it was 3 µM (≈ 1.35 µg/mL); in data set [5], 4 µM (≈ 1.81 µg/mL). The negative-log Ki (pKi) at GMP reductase 2 was less than 5.30; in data set [6], 5.48. Further, the result in data set [4] and in data set [7] was Active.
For `C[C@H](Oc1cccc(Cl)c1Cl)C(=O)Nc1ccc2oc(-c3ccc(OCC(=O)O)cc3)nc2c1`, the MIC in [1] is 4 µM; in data set [2] it was 20 µM; in data set [3] it was 9 µM (≈ 4.51 µg/mL); in [5], 2 µM (≈ 1 µg/mL). In addition, the t1/2 in [10] is reported as 23 min. Moreover, the pKi (at GMP reductase 2; in [6]) was less than 5.30 each time.
With `CCOC(=O)COc1ccc(-c2nc3cc(NC(=O)[C@H](C)Oc4cccc(Cl)c4Cl)ccc3o2)cc1`, the MIC was 0.5 µM in [1], 0.23 µM in data set [2], 0.2 to 3.1 µM (≈ 0.106 to 1.64 µg/mL) in [3] and 0.4 µM (≈ 0.212 µg/mL) in [5]. Further, the t1/2 in data set [10] was found to be 1.3 min. The pKi (on GMP reductase 2; in data set [6]) was less than 5.30 throughout. Besides, the Activity entry in the data set on HepG2 [11] is “Non-Toxic”. For the same compound, the result in data set [4] and in data set [7] was Active.
With `C[C@H](Oc1cccc(Cl)c1Cl)C(=O)Nc1ccc2oc(-c3ccc(C(=O)O)cc3)nc2c1`, the MIC in data set [1] is 5 µM; in data set [2], greater than 50 µM; in data set [3], no less than 25 µM; in data set [5], 4 µM (≈ 1.89 µg/mL). Further, the pKi (at GMP reductase 2; in data set [6]) was less than 5.30 each time. The result in data set [7] was Active.
In the case of `COc1ccc(-c2nc3cc(NC(=O)[C@H](C)Oc4ccccc4C#N)ccc3o2)cc1`, the minimum inhibitory concentration (MIC) in [1] was found to be 6.3 µM; in [2], 4.7 µM; in data set [3] it was 1.2 µM (≈ 0.496 µg/mL); in data set [5], 3.1 µM (≈ 1.28 µg/mL). In addition, the pKi (at GMP reductase 2; in data set [6]) was less than 5.30 in each case. Besides, the CC50 at 24 h in data set [8] is greater than 25 µM. In addition, the result in data set [4] and in data set [7] was Active. Moreover, the Activity in the data set on HepG2 [9] was 9 to 13%.
As to `COc1ccc(OC(C)C(=O)Nc2ccc3oc(-c4ccncc4)nc3c2)cc1` (centres undefined), the MIC in [1] was 24 µM; in data set [12] it was 12.5 µM; in data set [2] it was 21 µM; in data set [3], 10 to 12.5 µM (≈ 3.89 to 4.87 µg/mL); in data set [5], 5.3 µM (≈ 2.06 µg/mL). For the same compound, the pKi (on GMP reductase 2; in data set [6]) was less than 5.30 each time.
As for `C#CCOC(=O)COc1ccc(-c2nc3cc(NC(=O)[C@H](C)Oc4cccc(Cl)c4Cl)ccc3o2)cc1`, the minimum inhibitory concentration (MIC) turned out to be 1.4 µM in [1], 0.4 µM in [2], 0.2 µM (≈ 0.108 µg/mL) in data set [3] and 0.4 µM (≈ 0.216 µg/mL) in [5]. For the same compound, the negative-log Ki (pKi) (on GMP reductase 2; in data set [6]) was less than 5.30 each time. For the same compound, the Activity result with HepG2 [11] is given as “Non-Toxic”. In addition, the result in [4] and in [7] was Active.
